Experimental findings from patent US20230312587A1, “PTERIDINONE COMPOUNDS AND USES THEREOF” (Vertex Pharmaceutical Incorporated, priority 2018, published 2023) are described below.

For assay [1], the system named is Colo-205 cells. Put plainly: Calcium flux assay (FLIPR Calcium 5). It is filed as cell-based. The settings on record: Homo sapiens, COLO 205, 0.6 h, FLIPR Calcium 5, measured over 36 minutes. On the procedure:
Compounds described herein induced ER stress by causing intracellular calcium flux. Calcium flux was measured in Colo-205 cells using the FLTPR® Calcium 5 Assay Kit according to manufacter's protocol (Molecular Devices, Cat. #R8186) on a FLIPR3 system (Molecular Devices). Calcium flux is measured over 36 minutes. The Colo-205 calcium flux assay data are summarized in Table 47: A<0.6 μM; 0.6 μM≤B<2.0 μM; 2.0 μM≤C<10.0 μM; D≥10.0 μM.
(A change in cytosolic calcium serves as a functional read-out for many receptors and channels.)

For assay [2], the system named is HepG2 XBP1(u)-Luc cells. Put plainly: HepG2 XBP1 reporter assay. It is filed as cell-based. The settings on record: Homo sapiens, 6 h. An outline of the steps:
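Reporter cells are HepG2 stably carrying unspliced XBP1 fused to firefly luciferase, which becomes in-frame after IRE1alpha-mediated splicing. SteadyGlo luminescence was normalized to DMSO-treated cells for IC50 calculation.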
A general note: A reporter such as luciferase makes a cellular process visible.

Assay [3] has as its system Colo205-TCF/LEF-Luciferase (Luc) tumor. Put plainly: In vivo inhibition of TCF/LEF reporter activity in Colo-205 tumors. The settings on record: TCF/LEF luciferase reporter in Colo-205 tumors, nu/nu mice, oral gavage. On the set-up: concentration or dose not given beside the values. An outline of the steps:
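Female nu/nu mice carried subcutaneous Colo205-TCF/LEF-luciferase tumours (200–500 mm^3), n=4 per group. Compound was given by oral gavage in 1:3:5:1 EtOH:DMSO:PEG-400:H2O at 10 ml/kg, with vehicle as control. Luciferase activity in tumour lysates (Steady-Glo) was normalised to BCA protein.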

Some results are limits rather than exact numbers.

A word on the EC50: it is the midpoint of the concentration-response curve. In general, IC50 refers to the concentration at which inhibition is half-maximal. Take `CC[C@H]1C(=O)Nc2c(C)nc(NCc3cnn(Cc4ccc(C(F)(F)F)nc4)c3)nc2N1C` [Compound 186, (7S)-7-ethyl-4,8-dimethyl-2-(((1-((6-(trifluoromethyl)pyridin-3-yl)methyl)-1H-pyrazol-4-yl)methyl)amino)-7,8-dihydropteridin-6(5H)-one]: the EC50 in assay [1] was in the range of 600 to 2000 nM. This molecule had an IC50 in assay [2] of less than 600 nM. Also, in assay [3], the “Percent Remaining Activity at 8 hrs after Dosing” value (“Percent Remaining Activity” for short) is given as 23%.
Regarding `Cc1nc(C(F)(F)F)ccc1Cn1cc(CNc2nc(C)c3c(n2)N(C)[C@@H](C)C(=O)N3)cn1` [Compound 188, (S)-4,7,8-trimethyl-2-(((1-((2-methyl-6-(trifluoromethyl)pyridin-3-yl)methyl)-1H-pyrazol-4-yl)methyl)amino)-7,8-dihydropteridin-6(5H)-one], the EC50 in assay [1] fell in the range of 600 to 2000 nM. Also, the IC50 in assay [2] is less than 600 nM. Further, in assay [3], the “Percent Remaining Activity” value stood at 15%.
For the molecule `Cc1nc(NCc2cnn(Cc3ccnc(C(F)(F)F)c3)c2)nc2c1NC(=O)[C@H](C)N2C` [Compound 207, (7S)-4,7,8-trimethyl-2-(((1-((2-(trifluoromethyl)pyridin-4-yl)methyl)-1H-pyrazol-4-yl)methyl)amino)-7,8-dihydropteridin-6(5H)-one], the EC50 in assay [1] was in the range of 600 to 2000 nM. For the same molecule, the IC50 in assay [2] was less than 600 nM. Besides, the “Percent Remaining Activity” value in assay [3] was found to be 18%.
With `Cc1nc(N[C@H]2C[C@H](Oc3ccc(C(F)(F)F)nc3)C2)nc2c1NC(=O)[C@H](C)N2C` [Compound 324, (7S)-4,7,8-trimethyl-2-((trans-3-((6-(trifluoromethyl)pyridin-3-yl)oxy)cyclobutyl)amino)-7,8-dihydropteridin-6(5H)-one], the EC50 in assay [1] is less than 600 nM. Further, the IC50 in assay [2] is less than 600 nM. Besides, the “Percent Remaining Activity” value in assay [3] is listed as 16%.
Regarding `Cc1nc(N[C@H]2C[C@@H](Sc3cc(F)c(F)c(F)c3)C2)nc2c1NC(=O)[C@H](C)N2C` [Compound 332, (7S)-4,7,8-trimethyl-2-((cis-3-((3,4,5-trifluorophenyl)thio)cyclobutyl)amino)-7,8-dihydropteridin-6(5H)-one], the EC50 in assay [1] lay in the range of 600 to 2000 nM. Further, the IC50 in assay [2] was less than 600 nM. For the same molecule, the “Percent Remaining Activity” value in assay [3] is 51%.
The matching figures for `Cc1nc(N[C@H]2C[C@H](Oc3ccnc(C(F)(F)F)c3)C2)nc2c1NC(=O)[C@H](C)N2C` [Compound 335, (7S)-4,7,8-trimethyl-2-((trans-3-((2-(trifluoromethyl)pyridin-4-yl)oxy)cyclobutyl)amino)-7,8-dihydropteridin-6(5H)-one]: 600 to 2000 nM, less than 600 nM and 18%.
Turning to `Cc1nc(NCc2cnn(Cc3ccc(C(F)(F)F)nc3)c2)nc2c1NC(=O)[C@H](C(C)C)N2C` [Compound 383, (7S)-7-isopropyl-4,8-dimethyl-2-(((1-((6-(trifluoromethyl)pyridin-3-yl)methyl)-1H-pyrazol-4-yl)methyl)amino)-7,8-dihydropteridin-6(5H)-one], the EC50 in assay [1] was in the range of 600 to 2000 nM. In assay [2], the IC50 was 600 to 2000 nM. Besides, in assay [3], the “Percent Remaining Activity” value is given as 36%.
On to `Cc1nc(NCc2cnn(Cc3ccc(F)nc3)c2)nc2c1NC(=O)[C@H](C(C)C)N2C` [Compound 384, (7S)-2-(((1-((6-fluoropyridin-3-yl)methyl)-1H-pyrazol-4-yl)methyl)amino)-7-isopropyl-4,8-dimethyl-7,8-dihydropteridin-6(5H)-one], for which the EC50 in assay [1] was 600 to 2000 nM. In addition, in assay [2], the half-maximal inhibitory concentration (IC50) lay in the range of 600 to 2000 nM. The “Percent Remaining Activity” value in assay [3] was determined as 14%.
On to `Cc1nc(NCc2cnn(Cc3ccc(C(F)(F)F)nc3)c2)nc2c1NC(=O)[C@H](C)N2C(C)C` [Compound 385, (7S)-8-isopropyl-4,7-dimethyl-2-(((1-((6-(trifluoromethyl)pyridin-3-yl)methyl)-1H-pyrazol-4-yl)methyl)amino)-7,8-dihydropteridin-6(5H)-one], for which the EC50 in assay [1] lay within 600 to 2000 nM. For the same molecule, the IC50 in assay [2] is less than 600 nM. The “Percent Remaining Activity” value in assay [3] is reported as 25%.
